Data from patent US20260015358A1, “BICYCLIC DERIVATIVES, COMPOSITIONS AND USES THEREOF” (Danatlas Pharmaceuticals Co., Ltd., priority 2023, published 2026).

Columns and labels:
[1] = target: T1, WRN [UniPro: Q14191 (WRN_HUMAN), N500-C946] (Homo sapiens (Human), UniProt Q14191); assay: WRN ATPase assay (ADP-Glo); format: biochemical; conditions: WRN enzymatic activity assay
[2] = target: T1, WRN [UniPro: Q14191 (WRN_HUMAN), N500-C946]; assay: WRN unwinding assay (FORKF DNA, fluorescence); format: biochemical; conditions: Table 14

T1 sequence (Q14191 500-946): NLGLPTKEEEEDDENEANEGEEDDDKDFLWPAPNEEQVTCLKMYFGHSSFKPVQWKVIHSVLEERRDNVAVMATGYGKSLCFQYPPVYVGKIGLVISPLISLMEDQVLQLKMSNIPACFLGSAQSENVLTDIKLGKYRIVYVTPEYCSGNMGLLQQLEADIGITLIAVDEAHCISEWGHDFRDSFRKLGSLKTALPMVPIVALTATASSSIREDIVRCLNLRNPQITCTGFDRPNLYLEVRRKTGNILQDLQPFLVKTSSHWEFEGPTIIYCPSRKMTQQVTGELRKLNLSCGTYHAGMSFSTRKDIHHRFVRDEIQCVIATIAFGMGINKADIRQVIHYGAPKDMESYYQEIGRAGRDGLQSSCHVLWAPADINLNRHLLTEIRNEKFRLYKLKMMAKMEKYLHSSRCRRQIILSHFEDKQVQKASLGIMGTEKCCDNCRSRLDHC

SMILES	IC50 [1]	IC50 [2]
CCc1c(N2CCN(C(=O)CNC(=O)c3ccccc3F)CC2)c(=O)n2nc(C3=CCOCC3)nc2n1CC(=O)Nc1sc(C)cc1Br [Example 152, N-(2-(4-(4-(2-((3-bromo-5-methylthiophen-2-yl)amino)-2-oxoethyl)-2-(3,6-dihydro-2H-pyran-4-yl)-5-ethyl-7-oxo-4,7-dihydro-[1,2,4]triazolo[1,5-a]pyrimidin-6-yl)piperazin-1-yl)-2-oxoethyl)-2-fluorobenzamide]	100 to 1000 nM	< 100 nM
CCc1c(N2CCN(C(=O)CNC(=O)c3cc(F)ccc3F)CC2)c(=O)n2nc(C3=CCOCC3)nc2n1CC(=O)Nc1ccc(C(F)(F)F)cc1Cl [Example 118, N-(2-(4-(4-(2-((2-Chloro-4-(trifluoromethyl)phenyl)amino)-2-oxoethyl)-2-(3,6-dihydro-2H-pyran-4-yl)-5-ethyl-7-oxo-4,7-dihydro-[1,2,4]triazolo[1,5-a]pyrimidin-6-yl)piperazin-1-yl)-2-oxoethyl)-2,5-difluorobenzamide]	< 100 nM	< 100 nM
CCc1c(N2CCN(C(=O)c3nnc(C)[nH]c3=O)CC2)c(=O)n2nc(C3=CCOCC3)nc2n1CC(=O)Nc1ccc(C(F)(F)F)cc1Cl [Example 56, N-(2-Chloro-4-(trifluoromethyl)phenyl)-2-(2-(3,6-dihydro-2H-pyran-4-yl)-5-ethyl-6-(4-(3-methyl-5-oxo-4,5-dihydro-1,2,4-triazine-6-carbonyl)piperazin-1-yl)-7-oxo-[1,2,4]triazolo[1,5-a]pyrimidin-4(7H)-yl)acetamide]	< 100 nM	< 100 nM
CCc1c(N2CCN(C(=O)C(=O)Nc3cncs3)CC2)c(=O)n2nc(C3=CCOCC3)nc2n1CC(=O)Nc1ccc(C(F)(F)F)cc1Cl [Example 334, 2-(4-(4-(2-((2-Chloro-4-(trifluoromethyl)phenyl)amino)-2-oxoethyl)-2-(3,6-dihydro-2H-pyran-4-yl)-5-ethyl-7-oxo-4,7-dihydro-[1,2,4]triazolo[1,5-a]pyrimidin-6-yl)piperazin-1-yl)-2-oxo-N-(thiazol-5-yl)acetamide]	< 100 nM	< 100 nM
CCc1c(N2CCN(c3nnc(C(F)F)s3)CC2)c(=O)n2nc(C3=CCOCC3)nc2n1CC(=O)Nc1ccc(C(F)(F)F)cc1Cl [Example 8, N-(2-Chloro-4-(trifluoromethyl)phenyl)-2-(6-(4-(5-(difluoromethyl)-1,3,4-thiadiazol-2-yl)piperazin-1-yl)-2-(3,6-dihydro-2H-pyran-4-yl)-5-ethyl-7-oxo-[1,2,4]triazolo[1,5-a]pyrimidin-4(7H)-yl)acetamide]	> 1000 nM	> 1000 nM
CCc1c(N2CCN(C(=O)c3cc4sccc4[nH]c3=O)CC2)c(=O)n2nc(C3=CCOCC3)nc2n1CC(=O)Nc1ccc(C(F)(F)F)cc1Cl [Example 197, N-(2-Chloro-4-(trifluoromethyl)phenyl)-2-(2-(3,6-dihydro-2H-pyran-4-yl)-5-ethyl-7-oxo-6-(4-(5-oxo-4,5-dihydrothieno[3,2-b]pyridine-6-carbonyl)piperazin-1-yl)-[1,2,4]triazolo[1,5-a]pyrimidin-4(7H)-yl)acetamide]	< 100 nM	< 100 nM
CCc1c(N2CCN(C(=O)C(=O)Nc3nccs3)CC2)c(=O)n2nc(N3CCCOCC3)nc2n1CC(=O)Nc1ccc(C(F)(F)F)cc1F [Example 262, 2-(4-(5-Ethyl-4-(2-((2-fluoro-4-(trifluoromethyl)phenyl)amino)-2-oxoethyl)-2-(1,4-oxazepan-4-yl)-7-oxo-4,7-dihydro-[1,2,4]triazolo[1,5-a]pyrimidin-6-yl)piperazin-1-yl)-2-oxo-N-(thiazol-2-yl)acetamide]	100 to 1000 nM	< 100 nM
CCc1c(N2CCN(C(=O)CNC(=O)N3CCc4cccc(F)c43)CC2)c(=O)n2nc(C3=CCOCC3)nc2n1CC(=O)Nc1ccc(C(F)(F)F)cc1Cl [Example 193, N-(2-(4-(4-(2-((2-Chloro-4-(trifluoromethyl)phenyl)amino)-2-oxoethyl)-2-(3,6-dihydro-2H-pyran-4-yl)-5-ethyl-7-oxo-4,7-dihydro-[1,2,4]triazolo[1,5-a]pyrimidin-6-yl)piperazin-1-yl)-2-oxoethyl)-7-fluoroindoline-1-carboxamide]	< 100 nM	< 100 nM
CCc1c(N2CCN(C(=O)CNC(=O)c3cccc(F)c3F)CC2)c(=O)n2nc(C3=CCOCC3)nc2n1CC(=O)Nc1ccc(C(F)(F)F)cc1Cl [Example 116, N-(2-(4-(4-(2-((2-Chloro-4-(trifluoromethyl)phenyl)amino)-2-oxoethyl)-2-(3,6-dihydro-2H-pyran-4-yl)-5-ethyl-7-oxo-4,7-dihydro-[1,2,4]triazolo[1,5-a]pyrimidin-6-yl)piperazin-1-yl)-2-oxoethyl)-2,3-difluorobenzamide]	< 100 nM	< 100 nM
CCc1c(N2CCN(C(=O)CNC(=O)c3ccccc3F)CC2)c(=O)n2nc(C3=CCOCC3)nc2n1CC(=O)Nc1ccc(F)cc1F [Example 150, N-(2-(4-(4-(2-((2,4-Difluorophenyl)amino)-2-oxoethyl)-2-(3,6-dihydro-2H-pyran-4-yl)-5-ethyl-7-oxo-4,7-dihydro-[1,2,4]triazolo[1,5-a]pyrimidin-6-yl)piperazin-1-yl)-2-oxoethyl)-2-fluorobenzamide]	< 100 nM	< 100 nM
CCOc1nc2n(CC(=O)Nc3ccc(C(F)(F)F)cc3Cl)c(CC)c(N3CCN(C(=O)CNC(=O)c4ccccc4F)CC3)c(=O)n2n1 [Example 239, N-(2-(4-(4-(2-((2-Chloro-4-(trifluoromethyl)phenyl)amino)-2-oxoethyl)-2-ethoxy-5-ethyl-7-oxo-4,7-dihydro-[1,2,4]triazolo[1,5-a]pyrimidin-6-yl)piperazin-1-yl)-2-oxoethyl)-2-fluorobenzamide]	100 to 1000 nM	100 to 1000 nM

The next lines start with the values.

IC50 [1]	IC50 [2]	SMILES
100 to 1000 nM	> 1000 nM	CCc1c(N2CCN(C(=O)c3c(OC)cn[nH]c3=O)CC2)c(=O)n2nc(C3=CCOCC3)nc2n1CC(=O)Nc1ccc(C(F)(F)F)cc1Cl [Example 314, N-(2-Chloro-4-(trifluoromethyl)phenyl)-2-(2-(3,6-dihydro-2H-pyran-4-yl)-5-ethyl-6-(4-(3-hydroxy-5-methoxypyridazine-4-carbonyl)piperazin-1-yl)-7-oxo-[1,2,4]triazolo[1,5-a]pyrimidin-4(7H)-yl)acetamide]
< 100 nM	< 100 nM	CCC(=O)NS(=O)(=O)N1CCN(c2c(CC)n(CC(=O)Nc3ccc(C(F)(F)F)cc3Cl)c3nc(C4=CCOCC4)nn3c2=O)CC1 [Example 29, N-((4-(4-(2-((2-Chloro-4-(trifluoromethyl)phenyl)amino)-2-oxoethyl)-2-(3,6-dihydro-2H-pyran-4-yl)-5-ethyl-7-oxo-4,7-dihydro-[1,2,4]triazolo[1,5-a]pyrimidin-6-yl)piperazin-1-yl)sulfonyl) propionamide]
100 to 1000 nM	100 to 1000 nM	CCc1c(N2CCN(C(=O)CNC(=O)c3ccccc3F)CC2)c(=O)n2nc(C3=CCOCC3)nc2n1CC(=O)Nc1cc(C(F)(F)F)n(C)n1 [Example 162, N-(2-(4-(2-(3,6-Dihydro-2H-pyran-4-yl)-5-ethyl-4-(2-((1-methyl-5-(trifluoromethyl)-1H-pyrazol-3-yl)amino)-2-oxoethyl)-7-oxo-4,7-dihydro-[1,2,4]triazolo[1,5-a]pyrimidin-6-yl)piperazin-1-yl)-2-oxoethyl)-2-fluorobenzamide]
< 100 nM	< 100 nM	CCc1c(N2CCN(C(=O)c3cnn4cccc4c3O)CC2)c(=O)n2nc(C3=CCOCC3)nc2n1CC(=O)Nc1ccc(C(F)(F)F)cc1F [Example 318, 2-(2-(3,6-Dihydro-2H-pyran-4-yl)-5-ethyl-6-(4-(4-hydroxypyrrolo[1,2-b]pyridazine-3-carbonyl)piperazin-1-yl)-7-oxo-[1,2,4]triazolo[1,5-a]pyrimidin-4(7H)-yl)-N-(2-fluoro-4-(trifluoromethyl)phenyl)acetamide]
< 100 nM	< 100 nM	CCc1c(N2CCN(C(=O)CNC(=O)c3ccccc3Br)CC2)c(=O)n2nc(C3=CCOCC3)nc2n1CC(=O)Nc1ccc(C(F)(F)F)cc1Cl [Example 113, 2-Bromo-N-(2-(4-(4-(2-((2-chloro-4-(trifluoromethyl)phenyl)amino)-2-oxoethyl)-2-(3,6-dihydro-2H-pyran-4-yl)-5-ethyl-7-oxo-4,7-dihydro-[1,2,4]triazolo[1,5-a]pyrimidin-6-yl)piperazin-1-yl)-2-oxoethyl)benzamide]
< 100 nM	100 to 1000 nM	CCc1c(N2CCN(C(=O)CNC(=O)c3cc(N)c(F)cc3F)CC2)c(=O)n2nc(C3=CCOCC3)nc2n1CC(=O)Nc1ccc(C(F)(F)F)cc1Cl [Example 373, 5-Amino-N-(2-(4-(4-(2-((2-chloro-4-(trifluoromethyl)phenyl)amino)-2-oxoethyl)-2-(3,6-dihydro-2H-pyran-4-yl)-5-ethyl-7-oxo-4,7-dihydro-[1,2,4]triazolo[1,5-a]pyrimidin-6-yl)piperazin-1-yl)-2-oxoethyl)-2,4-difluorobenzamide]
100 to 1000 nM	100 to 1000 nM	CCc1c(N2CCN(C(=O)C(F)N3C(=O)c4ccccc4C3=O)CC2)c(=O)n2nc(C3=CCOCC3)nc2n1CC(=O)Nc1ccc(C(F)(F)F)cc1Cl (centres unmarked) [Example 345, N-(2-chloro-4-(trifluoromethyl)phenyl)-2-(2-(3,6-dihydro-2H-pyran-4-yl)-6-(4-(2-(1,3-dioxoisoindolin-2-yl)-2-fluoroacetyl)piperazin-1-yl)-5-ethyl-7-oxo-[1,2,4]triazolo[1,5-a]pyrimidin-4(7H)-yl)acetamide]
< 100 nM	< 100 nM	CCc1c(N2CCN(C(=O)c3n[nH]c(=O)n(C)c3=O)CC2)c(=O)n2nc(C3=CCOCC3)nc2n1CC(=O)Nc1ccc(Cl)cc1C(F)(F)F [Example 73, N-(4-Chloro-2-(trifluoromethyl)phenyl)-2-(2-(3,6-dihydro-2H-pyran-4-yl)-5-ethyl-6-(4-(4-methyl-3,5-dioxo-2,3,4,5-tetrahydro-1,2,4-triazine-6-carbonyl)piperazin-1-yl)-7-oxo-[1,2,4]triazolo[1,5-a]pyrimidin-4(7H)-yl)acetamide]
